Laboratory results from patent US8580965B2, “Substituted sulfonamide compounds” (Gruenenthal GmbH, priority 2006, dated 2013).
Where a name gives a salt, the structure may show the parent alone.

Legend:
[1] = target: T1, B1R receptor of the rat (bradykinin 1 receptor) (Rattus norvegicus, UniProt P97583); assay: FLIPR Ca2+ assay (Fluo-4) on CHO K1 cells stably transfected with the B1R gene of the rat; % activation and % inhibition at 10 μM; format: cell-based; details: CHO K1 rB1R cells, Ca2+ inflow after 100 nM Des-Arg9-bradykinin; for inhibition at 10 µM: CHO-K1, test substance 10 μM, read-out: B1R antagonism, rat [10 μM] % inhibition
T1 construct: host or cells: CHO K1 cells (rB1R cells)
T1 sequence (P97583 1-337): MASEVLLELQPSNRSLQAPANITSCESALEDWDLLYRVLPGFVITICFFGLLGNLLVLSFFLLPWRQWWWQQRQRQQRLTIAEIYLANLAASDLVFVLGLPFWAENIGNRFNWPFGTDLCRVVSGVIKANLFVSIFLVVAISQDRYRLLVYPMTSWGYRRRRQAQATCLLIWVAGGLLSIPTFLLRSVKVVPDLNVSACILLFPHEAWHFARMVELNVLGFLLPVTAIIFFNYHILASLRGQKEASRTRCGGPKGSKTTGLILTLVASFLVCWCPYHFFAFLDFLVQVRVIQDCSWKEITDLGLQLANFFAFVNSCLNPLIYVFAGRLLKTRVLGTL
Description: The agonistic or antagonistic action of substances can be quantified on the bradykinin receptor 1 (B1R) of the species human and rat with ectopically expressing cell lines (CHO K1 cells) and with the aid of a Ca^2+-sensitive dye (Fluo-4) using a fluorescent imaging plate reader (FLIPR). The indication in % activation is based on the Ca^2+ signal after addition of Lys-Des-Arg^9-bradykinin (0.5 nM) or Des-Arg^9-bradykinin (100 nM). Antagonists result in a suppression of the Ca^2+ influx following administration of the agonist. The % inhibition in comparison with the maximum achievable inhibition is indicated.
Functional Investigation on the Bradykinin 1 Receptor (B1R)
The agonistic or antagonistic action of substances can be determined on the bradykinin 1 receptor (B1R) of the human and rat species with the following assay. According to this assay, the Ca^2+ inflow through the channel is quantified with the aid of a Ca^2+-sensitive dyes (Fluo-4 type, Molecular Probes Europe BV, Leiden, The Netherlands) in a fluorescent imaging plate reader (FLIPR, Molecular Devices, Sunnyvale, USA).
Chinese Hamster Ovary cells (CHO K1 cells) which are stably transfected with the human B1R gene (hB1R cells, Euroscreen s.a., Gosselies, Belgium) or the B1R gene of the rat (rB1R cells, Axxam, Milan, Italy) are used. For functional investigations, these cells are plated-out on black 96-well plates with a clear base (BD Biosciences, Heidelberg, Germany) in a density of 20,000-25,000 cells/well. Overnight, the cells are incubated at 37° C. and 5% CO2 in culture medium (hB1R cells: Nutrient Mixture Ham's F12, Gibco Invitrogen GmbH, Karlsruhe, Germany; rB1R cells: D-MEM/F12, Gibco Invitrogen, Karlsruhe, Germany) with 10 vol. % FBS (foetal bovine serum, Gibco Invitrogen GmbH, Karlsruhe, Germany). On the following day, the cells are loaded with 2.13 μM Fluo-4 (Molecular Probes Europe BV, Leiden, The Netherlands) in HBSS buffer (Hank's buffered saline solution, Gibco Invitrogen GmbH, Karlsruhe, Germany) […] (Sigma-Aldrich, Taufkirchen, Germany) and 10 mM HEPES (Sigma-Aldrich, Taufkirchen, Germany) for 60 min at 37° C. The plates are subsequently washed 2× with HBSS buffer, and HBSS buffer which additionally contains 0.1% BSA (bovine serum albumin; Sigma-Aldrich, Taufkirchen, Germany), 5.6 mM glucose and 0.05% gelatine (Merck KGaA, Darmstadt, Germany) is added. After a further incubation of 20 minutes at room temperature, the plates are inserted into the FLIPR for Ca^2+ measurement. The Ca^2+-dependent fluorescence is measured here before and after addition of substances (λex=488 nm, λem=540 nm). The quantification is effected by measurement of the highest fluorescence intensity (FC, fluorescence counts) over time.
The FLIPR protocol comprises 2 additions of substance. Test substances (10 μM) are first pipetted on to the cells and the Ca^2+ inflow is compared with the control (hB1R: Lys-Des-Arg^9-bradykinin 0.5 nM; rB1R: Des-Arg^9-bradykinin 100 nM). The value in % activation based on the Ca^2+ signal after addition of Lys-Des-Arg^9-bradykinin (0.5 nM) or Des-Arg^9-bradykinin (100 nM) is obtained therefrom. After incubation for 10 minutes, 0.5 nM Lys-Des-Arg^9-bradykinin (hB1R) or 100 nM Des-Arg^9-bradykinin (rB1R) are applied and the inflow of Ca^2+ is likewise determined. Antagonists lead to a suppression of the Ca^2+ inflow. % inhibition compared with the maximum inhibition which can be achieved is calculated. The compounds show a good activity on the human and on the rat receptor. The following data were determined by way of example: […]

[2] = target: T2, human B1R receptor (bradykinin 1 receptor) (Homo sapiens, UniProt P46663); assay: FLIPR Ca2+ assay (Fluo-4) on CHO K1 cells stably transfected with the human B1R gene; % activation and % inhibition at 10 μM; format: cell-based; details: CHO K1 hB1R cells, Ca2+ inflow after 0.5 nM Lys-Des-Arg9-bradykinin; for inhibition at 10 µM: CHO-K1, test substance 10 μM, read-out: B1R antagonism, human [10 μM] % inhibition
T2 construct: host or cells: CHO K1 cells (hB1R cells)
T2 sequence (P46663 1-353): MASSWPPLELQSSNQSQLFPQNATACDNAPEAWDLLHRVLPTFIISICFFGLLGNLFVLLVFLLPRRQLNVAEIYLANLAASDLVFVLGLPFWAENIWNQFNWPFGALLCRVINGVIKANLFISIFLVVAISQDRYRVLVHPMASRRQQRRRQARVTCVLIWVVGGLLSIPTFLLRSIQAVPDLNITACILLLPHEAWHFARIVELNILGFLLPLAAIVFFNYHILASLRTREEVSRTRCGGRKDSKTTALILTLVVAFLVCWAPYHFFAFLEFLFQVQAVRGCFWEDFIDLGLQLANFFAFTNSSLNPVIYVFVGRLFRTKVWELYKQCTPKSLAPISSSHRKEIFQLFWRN
How it was run: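 CHO K1 cells stably expressing human or rat B1R, Fluo-4 loaded, read by FLIPR (peak fluorescence). Compound at 10 µM first gives % activation versus agonist; after 10 min, agonist (human: 0.5 nM Lys-Des-Arg9-bradykinin; rat: 100 nM Des-Arg9-bradykinin) gives % inhibition relative to maximal inhibition.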

[3] = test substance 10 μM, hydrochloride

Compound | inhibition at 10 µM [1] [%] | inhibition at 10 µM [2] [%] | B1R antagonism, rat [10 μM] % inhibition [1, 3] [%] | B1R antagonism, human [10 μM] % inhibition [2, 3] [%]
CCN(CCOCC(=O)N1CCC(O)(Cc2ccccc2)CC1)S(=O)(=O)c1c(C)cc(OC)c(C)c1C [Example 1, N-{2-[2-(4-benzyl-4-hydroxy-piperidin-1-yl)-2-oxo-ethoxy]-ethyl}-N-ethyl-4-methoxy-2,3,6-trimethyl-phenylsulfonamide] | 102 | 104 |  | 
O=C(COCC1CCCN1S(=O)(=O)c1c(Cl)cc(C(F)(F)F)cc1Cl)N1CCC(O)(c2ccc(Cl)c(C(F)(F)F)c2)CC1 (stereo not drawn) [Example 171, 1-(4-(4-chloro-3-(trifluoromethyl)phenyl)-4-hydroxypiperidin-1-yl)-2-((1-(2,6-dichloro-4-(trifluoromethyl)phenylsulfonyl)pyrrolidin-2-yl)methoxy)ethanone] | 104 | 0.56 |  | 
COc1cc(C)c(S(=O)(=O)N(CCOCC(=O)N2CCC(O)(c3cccnc3)CC2)CC2CC2)c(C)c1C [Example 240, N-(cyclopropylmethyl)-N-(2-(2-(4-hydroxy-4-(pyridin-3-yl)piperidin-1-yl)-2-oxoethoxy)ethyl)-4-methoxy-2,3,6-trimethylphenylsulfonamide] | 99.4 | 103 |  | 
CN(CCOCC(=O)N1CCC(O)(c2cccnc2)CC1)S(=O)(=O)c1c(Cl)cc(Cl)cc1Cl [Example 5, 2,4,6-trichloro-N-(2-(2-(4-hydroxy-4-(pyridin-3-yl)piperidin-1-yl)-2-oxoethoxy)ethyl)-N-methylphenylsulfonamide hydrochloride] |  |  | 95.11 | 101.04
COc1cc(C)c(S(=O)(=O)N2CCC(COCC(=O)N3CCC(O)(c4ccc(Cl)c(C(F)(F)F)c4)CC3)C2)c(C)c1 (stereo not drawn) [Example 228, 1-(4-(4-chloro-3-(trifluoromethyl)phenyl)-4-hydroxypiperidin-1-yl)-2-((1-(4-methoxy-2,6-dimethylphenylsulfonyl)pyrrolidin-3-yl)methoxy)ethanone] | 101 | 95 |  | 
Cc1cc(S(=O)(=O)N2CCCCC2CCC(=O)N2CCC(O)(c3cccc(F)c3)CC2)c(C)cc1Cl (stereo not drawn) [Example 120, 3-(1-(4-chloro-2,5-dimethylphenylsulfonyl)piperidin-2-yl)-1-(4-(3-fluorophenyl)-4-hydroxypiperidin-1-yl)propan-1-one] | 45.9 | 58.4 |  | 
COc1cc(C)c(S(=O)(=O)N2CCCCC2COCC(=O)N2CCC(O)(c3ccncc3)CC2)c(C)c1 (stereo not drawn) [Example 144, 1-(4-hydroxy-4-(pyridin-4-yl)piperidin-1-yl)-2-((1-(4-methoxy-2,6-dimethylphenylsulfonyl)piperidin-2-yl)methoxy)ethanone] | 101 | 104 |  | 
COc1cc(C)c(S(=O)(=O)N2CCC(COCC(=O)N3CCC(O)(c4cccnc4)CC3)C2)c(C)c1 (stereo not drawn) [Example 194, 1-(4-hydroxy-4-(pyridin-3-yl)piperidin-1-yl)-2-((1-(4-methoxy-2,6-dimethylphenylsulfonyl)pyrrolidin-3-yl)methoxy)ethanone] | 82.8 | 104 |  | 
O=C(COCC1CCCN1S(=O)(=O)c1cc(Cl)sc1Cl)N1CCC(O)(c2ccc(Cl)c(C(F)(F)F)c2)CC1 (stereo not drawn) [Example 223, 1-(4-(4-chloro-3-(trifluoromethyl)phenyl)-4-hydroxypiperidin-1-yl)-2-((1-(2,5-dichlorothiophen-3-ylsulfonyl)pyrrolidin-2-yl)methoxy)ethanone] | 99.5 | 15.1 |  | 

Next, values leading:

inhibition at 10 µM [1] [%] | inhibition at 10 µM [2] [%] | B1R antagonism, rat [10 μM] % inhibition [1, 3] [%] | B1R antagonism, human [10 μM] % inhibition [2, 3] [%] | Compound
92.9 | 47.8 |  |  | COc1cc(C)c(S(=O)(=O)N2CCCC(COCC(=O)N3CCC(O)(c4ccc(Cl)cc4)CC3)C2)c(C)c1 (stereo not drawn) [Example 251, 1-(4-(4-chlorophenyl)-4-hydroxypiperidin-1-yl)-2-((1-(4-methoxy-2,6-dimethylphenylsulfonyl)piperidin-3-yl)methoxy)ethanone]
99.7 | 93.9 |  |  | O=C(COCC1CCCCN1S(=O)(=O)c1c(Cl)cccc1Cl)N1CCC(O)(c2cccs2)CC1 (stereo not drawn) [Example 270, 2-((1-(2,6-dichlorophenylsulfonyl)piperidin-2-yl)methoxy)-1-(4-hydroxy-4-(thiophen-2-yl)piperidin-1-yl)ethanone]
96.1 | 71.5 |  |  | Cc1cc(S(=O)(=O)N(C)CCOCC(=O)N2CCC(O)(c3cccc(C(F)(F)F)c3)CC2)c(C)s1 [Example 258, N-(2-(2-(4-hydroxy-4-(3-(trifluoromethyl)phenyl)piperidin-1-yl)-2-oxoethoxy)ethyl)-N,2,5-trimethylthiophene-3-sulfonamide]
99.9 | 96.4 |  |  | COc1cc(C)c(S(=O)(=O)N(C)CCOCCC(=O)N2CCC(O)(c3ccc(Cl)c(C(F)(F)F)c3)CC2)c(C)c1 [Example 278, N-(2-(3-(4-(4-chloro-3-(trifluoromethyl)phenyl)-4-hydroxypiperidin-1-yl)-3-oxopropoxy)ethyl)-4-methoxy-N,2,6-trimethylphenylsulfonamide]
70.5 | 42.9 |  |  | CN(CCOCC(=O)N1CCC(O)(c2ccc(Cl)c(C(F)(F)F)c2)CC1)S(=O)(=O)c1cc(Cl)sc1Cl [Example 263, 2,5-dichloro-N-(2-(2-(4-(4-chloro-3-(trifluoromethyl)phenyl)-4-hydroxypiperidin-1-yl)-2-oxoethoxy)ethyl)-N-methylthiophene-3-sulfonamide]
29.5 | 54.1 |  |  | COc1cc(C)cc(C)c1S(=O)(=O)N1CCC(OCC(=O)N2CCC(O)(Cc3ccccc3)CC2)C1 (stereo not drawn) [Example 265, 1-(4-benzyl-4-hydroxypiperidin-1-yl)-2-(1-(2-methoxy-4,6-dimethylphenylsulfonyl)pyrrolidin-3-yloxy)ethanone]
